These results are taken from ChEMBL document CHEMBL3991601, “The target landscape of clinical kinase drugs” (Science, 2017).

The target of experiment [1] is Proto-oncogene tyrosine-protein kinase Src (Homo sapiens, UniProt P12931).
Experiment [2] addresses T1, Glycogen phosphorylase, liver form (Homo sapiens, UniProt P06737).
T1 sequence (P06737 whole entry): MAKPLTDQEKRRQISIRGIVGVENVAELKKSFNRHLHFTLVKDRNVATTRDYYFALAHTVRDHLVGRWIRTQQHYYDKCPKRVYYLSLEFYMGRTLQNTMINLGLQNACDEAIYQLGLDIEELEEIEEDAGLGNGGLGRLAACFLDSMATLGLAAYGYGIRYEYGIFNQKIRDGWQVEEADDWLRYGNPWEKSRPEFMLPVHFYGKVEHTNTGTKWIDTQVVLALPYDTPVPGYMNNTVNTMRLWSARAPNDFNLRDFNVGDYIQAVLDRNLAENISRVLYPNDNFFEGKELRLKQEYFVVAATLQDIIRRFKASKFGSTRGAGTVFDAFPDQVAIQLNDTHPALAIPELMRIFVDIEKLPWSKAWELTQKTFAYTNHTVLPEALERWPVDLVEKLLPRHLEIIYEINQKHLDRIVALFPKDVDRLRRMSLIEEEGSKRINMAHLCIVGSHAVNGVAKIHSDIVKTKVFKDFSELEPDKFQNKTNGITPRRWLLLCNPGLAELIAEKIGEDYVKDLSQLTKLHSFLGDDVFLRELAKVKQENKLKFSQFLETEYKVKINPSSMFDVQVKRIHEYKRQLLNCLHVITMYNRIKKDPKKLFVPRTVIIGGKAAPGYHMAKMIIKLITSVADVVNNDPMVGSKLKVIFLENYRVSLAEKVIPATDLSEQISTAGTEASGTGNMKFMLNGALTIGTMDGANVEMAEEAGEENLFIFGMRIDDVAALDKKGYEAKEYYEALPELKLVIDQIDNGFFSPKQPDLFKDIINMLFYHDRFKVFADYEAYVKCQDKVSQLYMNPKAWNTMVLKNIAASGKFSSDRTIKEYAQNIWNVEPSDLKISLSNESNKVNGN
The experiment is classed as subcellular, K-562, COLO 205, SK-N-BE(2) and MV-4-11, Cell lysate. The settings on record: read-out: Kd apparent.

For experiment [3], the target named is Protein kinase C beta type (Homo sapiens, UniProt P05771).
In experiment [4] the target is T2, General transcription and DNA repair factor IIH helicase subunit XPD (Homo sapiens, UniProt P18074).
T2 sequence (P18074 whole entry): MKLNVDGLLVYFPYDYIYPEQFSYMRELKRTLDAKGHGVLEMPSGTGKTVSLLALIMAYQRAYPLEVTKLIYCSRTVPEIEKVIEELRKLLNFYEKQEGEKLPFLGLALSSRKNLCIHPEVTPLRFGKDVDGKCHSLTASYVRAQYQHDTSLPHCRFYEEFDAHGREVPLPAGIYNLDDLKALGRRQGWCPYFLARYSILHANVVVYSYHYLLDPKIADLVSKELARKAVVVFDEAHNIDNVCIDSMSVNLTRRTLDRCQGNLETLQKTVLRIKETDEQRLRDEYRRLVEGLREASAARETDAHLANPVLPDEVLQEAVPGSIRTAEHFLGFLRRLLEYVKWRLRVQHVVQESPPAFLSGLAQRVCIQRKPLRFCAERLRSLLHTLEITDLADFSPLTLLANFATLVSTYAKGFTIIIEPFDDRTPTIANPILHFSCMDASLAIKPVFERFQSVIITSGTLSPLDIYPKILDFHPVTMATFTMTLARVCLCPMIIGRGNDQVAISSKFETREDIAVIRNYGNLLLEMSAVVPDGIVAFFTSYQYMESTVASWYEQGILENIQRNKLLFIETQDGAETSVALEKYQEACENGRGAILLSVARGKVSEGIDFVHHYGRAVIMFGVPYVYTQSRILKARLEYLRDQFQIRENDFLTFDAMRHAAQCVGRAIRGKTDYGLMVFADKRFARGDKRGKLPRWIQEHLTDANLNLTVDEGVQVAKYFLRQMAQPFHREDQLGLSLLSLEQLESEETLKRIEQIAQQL
The settings on record: read-out: Kd apparent; k-562, colo 205, sk-n-be(2) and mv-4-11.

For experiment [5], the target named is Mitogen-activated protein kinase 7 (Homo sapiens, UniProt Q13164).
Experiment [6] addresses Mitogen-activated protein kinase 1 (Homo sapiens, UniProt P28482).
Experiment [7] has as its target T3, EKC/KEOPS complex subunit TP53RK (Homo sapiens, UniProt Q96S44).
T3 sequence (Q96S44 whole entry): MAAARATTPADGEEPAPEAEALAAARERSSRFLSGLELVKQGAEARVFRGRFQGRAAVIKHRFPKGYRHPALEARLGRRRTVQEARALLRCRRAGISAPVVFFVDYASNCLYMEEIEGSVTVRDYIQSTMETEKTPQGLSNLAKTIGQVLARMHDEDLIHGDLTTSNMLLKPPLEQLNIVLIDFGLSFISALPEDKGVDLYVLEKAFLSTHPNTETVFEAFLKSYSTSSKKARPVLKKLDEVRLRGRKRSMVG

The target in experiment [8] is T4, Delta(24)-sterol reductase (Homo sapiens, UniProt Q15392).
T4 sequence (Q15392 whole entry): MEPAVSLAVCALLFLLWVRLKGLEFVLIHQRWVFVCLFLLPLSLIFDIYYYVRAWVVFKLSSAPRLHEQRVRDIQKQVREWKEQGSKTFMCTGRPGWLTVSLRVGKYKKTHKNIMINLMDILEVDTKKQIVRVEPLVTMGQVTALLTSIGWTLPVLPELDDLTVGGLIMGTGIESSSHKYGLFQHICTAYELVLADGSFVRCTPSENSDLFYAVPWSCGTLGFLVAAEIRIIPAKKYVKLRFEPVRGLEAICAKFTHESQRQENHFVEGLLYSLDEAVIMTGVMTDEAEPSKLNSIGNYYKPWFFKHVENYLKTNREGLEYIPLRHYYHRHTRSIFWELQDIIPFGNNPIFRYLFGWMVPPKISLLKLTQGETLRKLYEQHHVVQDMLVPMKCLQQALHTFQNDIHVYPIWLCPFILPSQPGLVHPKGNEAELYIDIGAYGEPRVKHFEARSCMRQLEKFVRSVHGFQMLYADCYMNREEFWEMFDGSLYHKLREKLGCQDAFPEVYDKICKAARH

Experiment [9] deals with DNA topoisomerase 2-beta (Homo sapiens, UniProt Q02880).
For experiment [10], the target named is Serine/threonine-protein kinase pim-1 (Homo sapiens, UniProt P11309).
Experiment [11] deals with Serine/threonine-protein kinase SIK3 (Homo sapiens, UniProt Q9Y2K2).
The target in experiment [12] is Adenosine kinase (Homo sapiens, UniProt P55263).

Calls of active or inactive are those of the source.
Also: in the data inactive means no Kd found up to 30 µM.

Chain of DNA topoisomerase 2-beta (Q02880 whole entry): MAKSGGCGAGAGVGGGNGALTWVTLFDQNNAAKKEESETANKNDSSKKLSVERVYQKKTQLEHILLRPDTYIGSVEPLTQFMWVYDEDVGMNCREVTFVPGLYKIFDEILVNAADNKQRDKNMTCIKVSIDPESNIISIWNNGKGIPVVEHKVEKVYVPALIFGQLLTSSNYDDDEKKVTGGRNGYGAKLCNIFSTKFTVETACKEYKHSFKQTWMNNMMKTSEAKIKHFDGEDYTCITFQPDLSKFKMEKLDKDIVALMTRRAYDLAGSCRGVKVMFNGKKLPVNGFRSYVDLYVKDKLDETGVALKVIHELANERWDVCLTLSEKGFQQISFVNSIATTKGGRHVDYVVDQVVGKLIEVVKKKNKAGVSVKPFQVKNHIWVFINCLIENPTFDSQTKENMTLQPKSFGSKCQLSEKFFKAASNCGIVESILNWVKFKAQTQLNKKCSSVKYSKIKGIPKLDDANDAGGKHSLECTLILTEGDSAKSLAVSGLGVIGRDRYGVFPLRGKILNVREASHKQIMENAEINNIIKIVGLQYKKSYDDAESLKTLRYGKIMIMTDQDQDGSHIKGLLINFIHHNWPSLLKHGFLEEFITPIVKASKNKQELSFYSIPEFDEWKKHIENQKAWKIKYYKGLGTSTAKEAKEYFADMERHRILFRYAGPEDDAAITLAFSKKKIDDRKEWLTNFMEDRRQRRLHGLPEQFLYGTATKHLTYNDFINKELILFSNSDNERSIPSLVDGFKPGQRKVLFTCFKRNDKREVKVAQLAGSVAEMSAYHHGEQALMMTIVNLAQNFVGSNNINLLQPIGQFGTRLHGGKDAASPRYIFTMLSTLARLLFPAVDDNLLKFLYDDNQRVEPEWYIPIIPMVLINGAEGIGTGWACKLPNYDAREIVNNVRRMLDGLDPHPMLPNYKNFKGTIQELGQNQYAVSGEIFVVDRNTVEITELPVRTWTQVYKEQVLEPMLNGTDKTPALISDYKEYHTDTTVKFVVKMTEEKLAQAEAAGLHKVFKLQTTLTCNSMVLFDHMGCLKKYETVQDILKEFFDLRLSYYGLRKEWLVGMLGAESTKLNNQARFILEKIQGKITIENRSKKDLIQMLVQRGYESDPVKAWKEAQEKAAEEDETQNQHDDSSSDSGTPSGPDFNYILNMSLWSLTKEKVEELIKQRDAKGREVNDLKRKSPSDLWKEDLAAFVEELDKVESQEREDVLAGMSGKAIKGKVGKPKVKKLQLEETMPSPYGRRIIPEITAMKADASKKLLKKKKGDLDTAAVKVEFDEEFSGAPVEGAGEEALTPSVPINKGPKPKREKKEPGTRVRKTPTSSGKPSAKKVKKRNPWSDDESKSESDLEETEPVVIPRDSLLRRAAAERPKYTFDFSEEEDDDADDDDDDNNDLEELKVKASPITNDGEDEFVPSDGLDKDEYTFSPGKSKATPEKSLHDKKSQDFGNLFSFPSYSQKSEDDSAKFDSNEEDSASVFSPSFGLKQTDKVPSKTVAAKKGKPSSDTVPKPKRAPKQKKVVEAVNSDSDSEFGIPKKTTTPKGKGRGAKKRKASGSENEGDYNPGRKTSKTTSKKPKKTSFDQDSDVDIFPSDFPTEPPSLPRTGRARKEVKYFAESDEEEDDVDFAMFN
Chain of Proto-oncogene tyrosine-protein kinase Src (P12931 2-536 limits assumed): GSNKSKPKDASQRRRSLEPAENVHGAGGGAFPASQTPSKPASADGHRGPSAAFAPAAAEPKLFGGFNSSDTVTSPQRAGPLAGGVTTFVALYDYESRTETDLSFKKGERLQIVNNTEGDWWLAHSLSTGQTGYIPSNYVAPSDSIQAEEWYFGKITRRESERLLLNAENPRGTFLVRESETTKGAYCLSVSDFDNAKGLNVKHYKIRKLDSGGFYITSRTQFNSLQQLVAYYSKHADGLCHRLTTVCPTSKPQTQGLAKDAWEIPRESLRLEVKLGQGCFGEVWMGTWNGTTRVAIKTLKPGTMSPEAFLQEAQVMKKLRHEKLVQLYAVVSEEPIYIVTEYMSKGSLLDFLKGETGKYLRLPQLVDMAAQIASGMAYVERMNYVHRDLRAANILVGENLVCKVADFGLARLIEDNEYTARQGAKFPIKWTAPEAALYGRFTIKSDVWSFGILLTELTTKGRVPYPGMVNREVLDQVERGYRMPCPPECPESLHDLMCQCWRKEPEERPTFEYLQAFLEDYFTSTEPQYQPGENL
Chain of Mitogen-activated protein kinase 1 (P28482 whole entry): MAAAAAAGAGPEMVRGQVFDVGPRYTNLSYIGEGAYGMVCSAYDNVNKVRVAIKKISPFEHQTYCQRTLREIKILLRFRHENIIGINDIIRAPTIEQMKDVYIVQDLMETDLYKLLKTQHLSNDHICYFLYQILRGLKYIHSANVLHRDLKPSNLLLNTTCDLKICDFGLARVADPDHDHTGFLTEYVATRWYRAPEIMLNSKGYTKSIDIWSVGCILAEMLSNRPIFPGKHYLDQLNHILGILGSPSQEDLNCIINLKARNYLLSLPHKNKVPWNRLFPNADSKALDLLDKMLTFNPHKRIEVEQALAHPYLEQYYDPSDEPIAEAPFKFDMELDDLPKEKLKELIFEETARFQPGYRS
Chain of Serine/threonine-protein kinase SIK3 (Q9Y2K2 whole entry): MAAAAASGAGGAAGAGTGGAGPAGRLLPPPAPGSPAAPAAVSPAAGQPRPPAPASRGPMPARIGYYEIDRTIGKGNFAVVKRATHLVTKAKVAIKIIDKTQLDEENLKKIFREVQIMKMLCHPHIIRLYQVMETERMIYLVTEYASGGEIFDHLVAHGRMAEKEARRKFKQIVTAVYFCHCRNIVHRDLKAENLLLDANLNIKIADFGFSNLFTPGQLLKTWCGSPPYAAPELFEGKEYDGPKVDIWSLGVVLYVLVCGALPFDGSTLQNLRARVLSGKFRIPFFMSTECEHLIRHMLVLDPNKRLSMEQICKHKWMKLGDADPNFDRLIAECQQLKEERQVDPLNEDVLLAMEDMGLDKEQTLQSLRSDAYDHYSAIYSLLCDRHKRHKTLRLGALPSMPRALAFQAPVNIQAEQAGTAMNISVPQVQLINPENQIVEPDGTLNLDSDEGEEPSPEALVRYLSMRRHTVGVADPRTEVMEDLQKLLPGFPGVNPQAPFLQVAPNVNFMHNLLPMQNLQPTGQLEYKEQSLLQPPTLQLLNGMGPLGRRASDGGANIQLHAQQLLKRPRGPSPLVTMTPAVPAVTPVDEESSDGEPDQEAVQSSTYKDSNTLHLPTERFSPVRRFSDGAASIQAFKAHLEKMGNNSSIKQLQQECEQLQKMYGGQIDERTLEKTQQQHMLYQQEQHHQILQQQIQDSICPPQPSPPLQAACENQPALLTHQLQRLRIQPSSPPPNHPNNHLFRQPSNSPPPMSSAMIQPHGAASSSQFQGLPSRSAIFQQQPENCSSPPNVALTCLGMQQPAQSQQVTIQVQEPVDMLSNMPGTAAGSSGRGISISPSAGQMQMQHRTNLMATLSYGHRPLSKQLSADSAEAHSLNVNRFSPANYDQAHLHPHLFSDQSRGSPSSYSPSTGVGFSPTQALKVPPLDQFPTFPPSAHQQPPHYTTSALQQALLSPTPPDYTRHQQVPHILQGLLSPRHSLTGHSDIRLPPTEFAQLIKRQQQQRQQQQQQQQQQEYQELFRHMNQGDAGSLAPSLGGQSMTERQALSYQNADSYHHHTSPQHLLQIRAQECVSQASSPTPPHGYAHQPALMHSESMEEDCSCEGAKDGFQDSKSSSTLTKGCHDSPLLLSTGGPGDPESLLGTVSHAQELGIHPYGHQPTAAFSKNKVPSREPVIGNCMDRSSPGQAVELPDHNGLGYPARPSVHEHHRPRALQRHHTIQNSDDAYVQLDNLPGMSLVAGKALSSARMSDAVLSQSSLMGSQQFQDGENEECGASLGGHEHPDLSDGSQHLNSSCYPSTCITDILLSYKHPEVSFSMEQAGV
Chain of Mitogen-activated protein kinase 7 (Q13164 whole entry): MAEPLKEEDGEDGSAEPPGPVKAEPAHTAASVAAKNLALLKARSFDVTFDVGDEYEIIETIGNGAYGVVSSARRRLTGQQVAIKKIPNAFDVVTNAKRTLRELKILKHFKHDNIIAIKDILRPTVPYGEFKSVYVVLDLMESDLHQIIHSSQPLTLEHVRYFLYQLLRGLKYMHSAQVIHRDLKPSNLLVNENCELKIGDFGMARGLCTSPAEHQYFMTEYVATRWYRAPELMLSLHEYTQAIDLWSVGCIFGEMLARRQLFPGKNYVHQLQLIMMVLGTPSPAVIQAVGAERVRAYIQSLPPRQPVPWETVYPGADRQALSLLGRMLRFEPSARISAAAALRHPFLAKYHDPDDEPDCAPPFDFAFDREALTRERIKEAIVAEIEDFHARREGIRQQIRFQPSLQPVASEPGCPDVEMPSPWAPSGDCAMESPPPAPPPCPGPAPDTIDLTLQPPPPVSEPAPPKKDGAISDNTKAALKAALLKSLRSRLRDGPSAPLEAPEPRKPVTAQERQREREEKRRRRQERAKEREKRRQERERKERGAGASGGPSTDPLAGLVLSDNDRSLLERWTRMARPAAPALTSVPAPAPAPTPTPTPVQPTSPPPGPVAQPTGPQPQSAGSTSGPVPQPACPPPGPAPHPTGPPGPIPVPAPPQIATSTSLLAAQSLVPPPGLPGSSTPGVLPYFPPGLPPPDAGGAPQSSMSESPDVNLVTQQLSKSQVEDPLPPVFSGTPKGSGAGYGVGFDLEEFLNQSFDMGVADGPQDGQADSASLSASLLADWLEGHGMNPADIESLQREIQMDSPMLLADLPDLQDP
Chain of Serine/threonine-protein kinase pim-1 (P11309 whole entry): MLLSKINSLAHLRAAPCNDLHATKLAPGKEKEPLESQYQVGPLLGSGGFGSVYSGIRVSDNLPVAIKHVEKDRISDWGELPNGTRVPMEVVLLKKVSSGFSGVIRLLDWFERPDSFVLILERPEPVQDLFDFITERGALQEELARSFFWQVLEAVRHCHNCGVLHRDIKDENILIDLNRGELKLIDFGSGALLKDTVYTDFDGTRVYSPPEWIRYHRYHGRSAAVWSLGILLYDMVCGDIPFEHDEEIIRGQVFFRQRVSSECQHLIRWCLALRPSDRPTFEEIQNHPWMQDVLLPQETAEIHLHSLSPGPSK

For the compound `CO[C@H]1C[C@@H]2CC[C@@H](C)[C@@](O)(O2)C(=O)C(=O)N2CCCC[C@H]2C(=O)O[C@H]([C@H](C)C[C@@H]2CC[C@@H](OCCO)[C@H](OC)C2)CC(=O)[C@H](C)/C=C(\C)[C@@H](O)[C@@H](OC)C(=O)[C@H](C)C[C@H](C)/C=C/C=C/C=C/1C` [EVEROLIMUS], the Kd in experiment [1], in experiment [2], in experiment [3], in [4], in [5] and in experiment [6] was > 30 µM (inactive) each time. Besides, the Kd in experiment [7], in experiment [8], in experiment [9], in experiment [10], in experiment [11] and in experiment [12] was > 30 µM (inactive) each time.
Regarding `Cc1ccc(NC(=O)c2ccc(CN3CC[C@H](N(C)C)C3)c(C(F)(F)F)c2)cc1Nc1nccc(-c2cncnc2)n1` [BAFETINIB], the Kd in [1], in experiment [2], in [3], in experiment [4], in [5] and in experiment [6] was > 30 µM (inactive) each time. The Kd in [7], in experiment [8], in [9], in [10], in experiment [11] and in [12] was > 30 µM (inactive) throughout.
`COc1cc(CCc2cc(NC(=O)c3ccc(N4C[C@@H](C)N[C@@H](C)C4)cc3)n[nH]2)cc(OC)c1` [AZD-4547]: the Kd in [1], in experiment [2], in experiment [3], in [4], in experiment [5] and in experiment [6] was > 30 µM (inactive) in each case. In addition, the Kd in experiment [7], in [8], in experiment [9], in [10], in experiment [11] and in experiment [12] was > 30 µM (inactive) in each case.
On to `C[C@@H]1CN(Cc2ccc(F)cc2)[C@@H](C)CN1C(=O)c1cc2c(C(=O)C(=O)N(C)C)cn(C)c2cc1Cl` [TALMAPIMOD], for which the Kd in experiment [1], in [2], in experiment [3], in [4], in experiment [5] and in experiment [6] was > 30 µM (inactive) throughout. The Kd in experiment [7], in [9], in experiment [10], in [11] and in experiment [12] was > 30 µM (inactive) in each case.
With `COc1cc(N2CCC(N3CCN(C)CC3)CC2)ccc1Nc1ncnc(Nc2ccccc2S(=O)(=O)C(C)C)n1` [ASP-3026], the Kd in [1], in [2], in [3], in experiment [4], in experiment [5] and in experiment [6] was > 30 µM (inactive) each time. Further, the Kd in [7], in experiment [8], in experiment [9], in experiment [10] and in experiment [11] was > 30 µM (inactive) throughout.
Consider `C[C@@H](c1ccc2nccn2c1)n1nnc2ncc(-c3cnn(C)c3)nc21` [SAVOLITINIB], for which the Kd in [1], in experiment [2], in experiment [3], in experiment [4], in experiment [5] and in [6] was > 30 µM (inactive) each time. Further, the Kd in experiment [7], in experiment [8], in experiment [10], in experiment [11] and in experiment [12] was > 30 µM (inactive) each time.
With `Cn1ncc(Cl)c1-c1cc(C(=O)N[C@H](CN)Cc2cccc(F)c2)sc1Cl` [AFURESERTIB], the Kd is > 30 µM (inactive) in experiment [1]; > 30 µM (inactive) in [2]; 4.88 µM (active) in [3]; > 30 µM (inactive) in experiment [4]; > 30 µM (inactive) in experiment [5]; > 30 µM (inactive) in [6]. In addition, the Kd in experiment [7], in experiment [8], in experiment [9], in experiment [10] and in [11] was > 30 µM (inactive) throughout.
In the case of `COC(=O)[C@@]1(O)C[C@H]2O[C@]1(C)n1c3ccccc3c3c4c(c5c6ccccc6n2c5c31)C(=O)NC4` [K-252A], the Kd was > 30 µM (inactive) in [1]; > 30 µM (inactive) in experiment [2]; > 30 µM (inactive) in experiment [4]; > 30 µM (inactive) in experiment [5]; > 30 µM (inactive) in [6]; 3.84 µM (active) in experiment [7]. For the same compound, the Kd in experiment [8] is > 30 µM (inactive); in [9], > 30 µM (inactive); in experiment [10] it was > 30 µM (inactive); in [11], 4.03 µM (active); in experiment [12], > 30 µM (inactive).
`O=C(c1ccc(F)c(F)c1Nc1ccc(I)cc1F)N1CC(O)([C@@H]2CCCCN2)C1` [COBIMETINIB]: the Kd in experiment [1], in [2], in experiment [3], in experiment [4], in experiment [5] and in experiment [6] was > 30 µM (inactive) each time. Also, the Kd in experiment [7], in experiment [8], in [9], in [10] and in [11] was > 30 µM (inactive) each time.
